The numbers were not newly measured in PubChem BioAssay AID1259409 (Chemical Carcinogenesis Research Information System (CCRIS), 2018), which cites them from elsewhere.

The data set has as its system rodent chemically induced tumor inhibition, incidence and multiplicity. Briefly: CCRIS tumor inhibitor studies.

As to `CCCCNC(=O)\C=C(C)/C=C/C=C(C)/C=C/C1=C(C)CCCC1(C)C`, the “tumour outcome (control, treated, inhibition, significance)” value (Carcinogen: N-BUTYL-N-(4-HYDROXYBUTYL)NITROSAMINE, 3817-11-6, Dose [Inhibitor]: 1.5 MMOL/KG IN DIET FOR 133 D STARTING 1 WK AFTER THE LAST CARCINOGEN DOSE ( STUDY DURATION: 190 D), Route [Inhibitor]: ORAL, Species: MOUSE, Strain/Sex: BDF/MALE, Target Tissue: Type of Lesion: URINARY BLADDER: TRANSITIONAL CELL CARCINOMA, Dose [Carcinogen]: 7.5 MG 1/WK FOR 8 WK, Promoter: NONE USED) is on record as 21/100 (21%), 19/97 (20%), 5%, not significant.
For the compound `CNC[C@H](O)c1ccc(O)c(O)c1`, the “tumour outcome (control, treated, inhibition, significance)” value runs as follows: (Carcinogen: 4-(METHYLNITROSAMINO)-1-(3-PYRIDLY)-1-BUTANONE [64091-91-4], Dose [Inhibitor]: 1 MG/KG BW 3X/WK FOR 31 WK BEGINNING 1 WK POST LAST CARCINOGEN DOSE (STUDY DURATION: 52 WK), Route [Inhibitor]: SUBCUTANEOUS, Species: HAMSTER, Strain/Sex: SYRIAN/MALE, Target Tissue: Type of Lesion: LUNG: TUMOR, Dose [Carcinogen]: 10 MG/KG BW 3X/WK FOR 20 WK (STUDY DURATION: 52 WK), Promoter: NONE) 12/15 (80.0%), 15/15 (100.0%), -25%, not calculated; (Carcinogen: 4-(METHYLNITROSAMINO)-1-(3-PYRIDLY)-1-BUTANONE [64091-91-4], Dose [Inhibitor]: 1 MG/KG BW 3X/WK FOR 31 WK BEGINNING 1 WK POST LAST CARCINOGEN DOSE (STUDY DURATION: 52 WK), Route [Inhibitor]: SUBCUTANEOUS, Species: HAMSTER, Strain/Sex: SYRIAN/MALE, Target Tissue: Type of Lesion: NASAL CAVITY: TUMOR, Dose [Carcinogen]: 10 MG/KG BW 3X/WK FOR 20 WK (STUDY DURATION: 52 WK), Promoter: NONE) 4/15 (26.7%), 3/15 (20.0%), 25%, not calculated.
Take `[Mg+2]`: under “Carcinogen: 7,12-DIMETHYLBENZ[A]ANTHRACENE, 57-97-6, Dose [Inhibitor]: 0, 50 UG/ML IN DRINKING WATER FROM 40-90 D OF AGE THEN 0, 30 UG/ML FROM 90-180 D OF AGE AND 0, 20 UG/ML FROM 180-240 D O, Dose [Inhibitor]: 0, 50 UG/ML IN DRINKING WATER FROM 40-90 D OF AGE THEN 0, 30 UG/ML FROM 90-180 D OF AGE AND 0, 20 UG/ML FROM 180-240 D O, Route [Inhibitor]: ORAL, Species: RAT, Strain/Sex: SPRAGUE DAWLEY/FEMALE, Target Tissue: Type of Lesion: MAMMARY GLAND: ADENOCARCINOMA, FIBROADENOMA, Dose [Carcinogen]: 5 MG IN 0.2 ML SESAME OIL 1/2 D FOR 12 D BEGINNING AT 50 D OF AGE, Promoter: NONE USED”, the “tumour outcome (control, treated, inhibition, significance)” value is recorded as 100%, 46%, 54%, p<0.001.
In the case of `C=Cc1ccc2ccc3cccc4ccc1c2c34`, the “tumour outcome (control, treated, inhibition, significance)” value (Carcinogen: 7,12-DIMETHYLBENZ[A]ANTHRACENE, 57-97-6, Dose [Inhibitor]: 0, 44 NMOL IN 0.2 ML ACETONE APPLIED TO BACK ONCE 5 MIN PRIOR TO CARCINOGEN DOSE (STUDY DURATION: 26 WK), Route [Inhibitor]: DERMAL, Species: MOUSE, Strain/Sex: SENCAR/FEMALE, Target Tissue: Type of Lesion: SKIN: PAPILLOMA, Dose [Carcinogen]: 10 NMOL IN 0.2 ML ACETONE APPLIED TO BACK ONCE.) is given as 100%, 100%, 0%, not significant; the “tumour outcome (control, treated, inhibition, significance)” value (Carcinogen: 7,12-DIMETHYLBENZ[A]ANTHRACENE, 57-97-6, Dose [Inhibitor]: 0, 440 NMOL IN 0.2 ML ACETONE APPLIED TO BACK ONCE 5 MIN PRIOR TO CARCINOGEN DOSE (STUDY DURATION: 26 WK), Route [Inhibitor]: DERMAL, Species: MOUSE, Strain/Sex: SENCAR/FEMALE, Target Tissue: Type of Lesion: SKIN: PAPILLOMA, Dose [Carcinogen]: 10 NMOL IN 0.2 ML ACETONE APPLIED TO BACK ONCE.) is listed as 100%, 92%, 8%, not calculated; the “tumour outcome (control, treated, inhibition, significance)” value (Carcinogen: 7,12-DIMETHYLBENZ[A]ANTHRACENE, 57-97-6, Dose [Inhibitor]: 0, 4400 NMOL IN 0.2 ML ACETONE APPLIED TO BACK ONCE 5 MIN PRIOR TO CARCINOGEN DOSE (STUDY DURATION: 20 WK), Route [Inhibitor]: DERMAL, Species: MOUSE, Strain/Sex: SENCAR/FEMALE, Target Tissue: Type of Lesion: SKIN: PAPILLOMA, Dose [Carcinogen]: 10 NMOL IN 0.2 ML ACETONE APPLIED TO BACK ONCE.) was 100%, 68%, 32%, not calculated; the “tumour outcome (control, treated, inhibition, significance)” value (Carcinogen: 7,12-DIMETHYLBENZ[A]ANTHRACENE, 57-97-6, Dose [Inhibitor]: 0, 4400 NMOL IN 0.2 ML ACETONE APPLIED TO BACK ONCE 5 MIN PRIOR TO CARCINOGEN DOSE (STUDY DURATION: 26 WK), Route [Inhibitor]: DERMAL, Species: MOUSE, Strain/Sex: SENCAR/FEMALE, Target Tissue: Type of Lesion: SKIN: PAPILLOMA, Dose [Carcinogen]: 10 NMOL IN 0.2 ML ACETONE APPLIED TO BACK ONCE.) is 100%, 79%, 21%, not calculated; the “tumour outcome (control, treated, inhibition, significance)” value (Carcinogen: 7,12-DIMETHYLBENZ[A]ANTHRACENE, 57-97-6, Dose [Inhibitor]: 0, 44000 NMOL IN 0.2 ML ACETONE APPLIED TO BACK ONCE 5 MIN PRIOR TO CARCINOGEN DOSE (STUDY DURATION: 20 WK), Route [Inhibitor]: DERMAL, Species: MOUSE, Strain/Sex: SENCAR/FEMALE, Target Tissue: Type of Lesion: SKIN: PAPILLOMA, Dose [Carcinogen]: 10 NMOL IN 0.2 ML ACETONE APPLIED TO BACK ONCE.) is 100%, 24%, 76%, not calculated; the “tumour outcome (control, treated, inhibition, significance)” value (Carcinogen: BENZO[A]PYRENE, 50-32-8, Dose [Inhibitor]: 0, 2200 NMOL IN 0.2 ML ACETONE APPLIED TO BACK ONCE 5 MIN PRIOR TO CARCINOGEN DOSE (STUDY DURATION: 26 WK), Route [Inhibitor]: DERMAL, Species: MOUSE, Strain/Sex: SENCAR/FEMALE, Target Tissue: Type of Lesion: SKIN: PAPILLOMA, Dose [Carcinogen]: 200 NMOL IN 0.2 ML ACETONE APPLIED TO BACK ONCE.) is listed as 100%, 95%, 5%, not calculated. The “tumour outcome (control, treated, inhibition, significance)” value is, setting by setting: (Carcinogen: BENZO[A]PYRENE, 50-32-8, Dose [Inhibitor]: 0, 4400 NMOL IN 0.2 ML ACETONE APPLIED TO BACK ONCE 5 MIN PRIOR TO CARCINOGEN DOSE (STUDY DURATION: 20 WK), Route [Inhibitor]: DERMAL, Species: MOUSE, Strain/Sex: SENCAR/FEMALE, Target Tissue: Type of Lesion: SKIN: PAPILLOMA, Dose [Carcinogen]: 200 NMOL IN 0.2 ML ACETONE APPLIED TO BACK ONCE., Promoter: PHORBOLMYRISTATE ACETATE, 16561-29-8) 75%, 64%, 15%, not calculated; (Carcinogen: BENZO[A]PYRENE, 50-32-8, Dose [Inhibitor]: 0, 22000 NMOL IN 0.2 ML ACETONE APPLIED TO BACK ONCE 5 MIN PRIOR TO CARCINOGEN DOSE (STUDY DURATION: 26 WK), Route [Inhibitor]: DERMAL, Species: MOUSE, Strain/Sex: SENCAR/FEMALE, Target Tissue: Type of Lesion: SKIN: PAPILLOMA, Dose [Carcinogen]: 200 NMOL IN 0.2 ML ACETONE APPLIED TO BACK ONCE.) 100%, 59%, 41%, not calculated; (Carcinogen: BENZO[A]PYRENE, 50-32-8, Dose [Inhibitor]: 0, 44000 NMOL IN 0.2 ML ACETONE APPLIED TO BACK ONCE 5 MIN PRIOR TO CARCINOGEN DOSE (STUDY DURATION: 20 WK), Route [Inhibitor]: DERMAL, Species: MOUSE, Strain/Sex: SENCAR/FEMALE, Target Tissue: Type of Lesion: SKIN: PAPILLOMA, Dose [Carcinogen]: 200 NMOL IN 0.2 ML ACETONE APPLIED TO BACK ONCE) 75%, 59%, 21%, not calculated; (Carcinogen: BENZO[A]PYRENE, 50-32-8, Dose [Inhibitor]: 0, 44000 NMOL IN 0.2 ML ACETONE APPLIED TO BACK ONCE 5 MIN PRIOR TO CARCINOGEN DOSE (STUDY DURATION: 26 WK), Route [Inhibitor]: DERMAL, Species: MOUSE, Strain/Sex: SENCAR/FEMALE, Target Tissue: Type of Lesion: SKIN: PAPILLOMA, Dose [Carcinogen]: 200 NMOL IN 0.2 ML ACETONE APPLIED TO BACK ONCE.) 100%, 38%, 62%, not calculated; (Carcinogen: N-METHYL-N'-NITRO-N-NITROSOGUANIDINE, 70-25-7, Dose [Inhibitor]: 0, 22000 NMOL IN 0.2 ML ACETONE APPLIED TO BACK ONCE 5 MIN PRIOR TO CARCINOGEN DOSE (STUDY DURATION: 20 WK), Route [Inhibitor]: DERMAL, Species: MOUSE, Strain/Sex: SENCAR/FEMALE, Target Tissue: Type of Lesion: SKIN: PAPILLOMA, Dose [Carcinogen]: 2500 NMOL IN 0.2 ML ACETONE APPLIED TO BACK ONCE.) 78%, 79%, -1%, not calculated.
As for `CC(=O)O[C@@H]1[C@H]2[C@@H](OC(=O)c3ccccc3)[C@@H](OC(=O)c3ccccc3)[C@]3(C)[C@@H](OC(=O)c4ccccc4)[C@@H](OC(=O)c4ccccc4)C[C@@H](C)[C@@]13OC2(C)C`, the “tumour outcome (control, treated, inhibition, significance)” value reads like this: (Carcinogen: 7,12-DIMETHYLBENZ[A]ANTHRACENE, 57-97-6, Dose [Inhibitor]: 0, 85 NMOL IN 0.1 ML ACETONE 2/WK APPLIED 1 HR POST EACH PROMOTER DOSE BEGINNING 1 WK POST CARCINOGEN DOSE AND CONTINUIN, Route [Inhibitor]: DERMAL, Species: MOUSE, Strain/Sex: ICR/FEMALE, Target Tissue: Type of Lesion: SKIN: TUMOR, Dose [Carcinogen]: 390 NMOL IN 0.1 ML ACETONE ONCE, Promoter: 12-O-TETRADECANOYLPHORBOL-13-ACETATE, 16561-29-8) 100%, 52%, 48%, not calculated; (Carcinogen: 7,12-DIMETHYLBENZ[A]ANTHRACENE, 57-97-6, Dose [Inhibitor]: 0, 85 NMOL IN 0.1 ML ACETONE 2/WK APPLIED 1 HR PRIOR TO EACH PROMOTER DOSE BEGINNING 1 WK POST CARCINOGEN DOSE AND CONTI, Route [Inhibitor]: DERMAL, Species: MOUSE, Strain/Sex: ICR/FEMALE, Target Tissue: Type of Lesion: SKIN: TUMOR, Dose [Carcinogen]: 390 NMOL IN 0.1 ML ACETONE ONCE, Promoter: 12-O-TETRADECANOYLPHORBOL-13-ACETATE, 16561-29-8) 100%, 86%, 14%, not calculated.
